Values of other authors in patent US8232273B2, “Heterocyclic compounds and methods of use” (Genentech, Inc., priority 2008, dated 2012).

How the values were obtained:
Mcl-1 and A1 = conditions: cited from earlier work
xenograft models = conditions: animal studies, single agent; cited from earlier work
Bcl-2, Bcl-w and Bcl-xL = conditions: cited from earlier work

For `CN(C)CC[C@H](CSc1ccccc1)Nc1ccc(S(=O)(=O)NC(=O)c2ccc(N3CCN(Cc4ccccc4-c4ccc(Cl)cc4)CC3)cc2)cc1[N+](=O)[O-]` [ABT-737, N-(4-(4-((4′-chloro(1,1′-biphenyl)-2-yl)methyl)piperazin-1-yl)benzoyl)-4-(((1R)-3-(dimethylamino)-1-((phenylsulfanyl)methyl)propyl)amino)-3-nitrobenzenesulfonamide], the “binding to Mcl-1 and A1” value (Mcl-1 and A1) is given as “only weakly”, the “cytotoxic activity in certain xenograft models as single agents” value (xenograft models) is given as “demonstrated cytotoxic activity” and the “binding to Bcl-2, Bcl-w and Bcl-xL” value (Bcl-2, Bcl-w and Bcl-xL) is given as “bind strongly”.
For `CC1(C)CCC(c2ccc(Cl)cc2)=C(CN2CCN(c3ccc(C(=O)NS(=O)(=O)c4ccc(N[C@H](CCN5CCOCC5)CSc5ccccc5)c(S(=O)(=O)C(F)(F)F)c4)cc3)CC2)C1` [ABT-263, N-(4-(4-((2-(4-chlorophenyl)-5,5-dimethyl-1-cyclohex-1-en-1-yl)methyl)piperazin-1-yl)benzoyl)-4-(((1R)-3-(morpholin-4-yl)-1-((phenylsulfanyl)methyl)propyl)amino)-3-((trifluoromethyl)sulfonyl)benzenesulfonamide], the “binding to Mcl-1 and A1” value (Mcl-1 and A1) is given as “only weakly”, the “cytotoxic activity in certain xenograft models as single agents” value (xenograft models) is given as “demonstrated cytotoxic activity” and the “binding to Bcl-2, Bcl-w and Bcl-xL” value (Bcl-2, Bcl-w and Bcl-xL) is given as “bind strongly”.
